{"source": "the CheMixHub ionic liquid set", "assay": "xn = mol fraction of the nth substance listed", "conditions": "for viscosity: 101 kPa; for electrical conductivity: 100 kPa, frequency 0.005 MHz", "note": "± gives the uncertainty stated by the source."}
{"compound": "OC1OC[C@@H](O)[C@H](O)[C@H]1O", "note": "(some centres undefined) + O + CCCCCC[n+]1ccn(C)c1.[Br-]", "values": [{"measurement": "viscosity", "setting": "298.15 K, x1 = 0.0001973, x3 = 0.001843", "value": "0.957 ± 0.014", "unit": "mPa·s"}, {"measurement": "viscosity", "setting": "298.15 K, x1 = 0.000198, x3 = 0.003653", "value": "1.007 ± 0.015", "unit": "mPa·s"}, {"measurement": "viscosity", "setting": "298.15 K, x1 = 0.0002099, x3 = 0.005424", "value": "1.054 ± 0.015", "unit": "mPa·s"}, {"measurement": "viscosity", "setting": "298.15 K, x1 = 0.0002123, x3 = 0.007151", "value": "1.106 ± 0.015", "unit": "mPa·s"}, {"measurement": "viscosity", "setting": "298.15 K, x1 = 0.0003779, x3 = 0.001843", "value": "0.961 ± 0.014", "unit": "mPa·s"}, {"measurement": "viscosity", "setting": "298.15 K, x1 = 0.0003808, x3 = 0.003652", "value": "1.011 ± 0.015", "unit": "mPa·s"}, {"measurement": "viscosity", "setting": "298.15 K, x1 = 0.0003928, x3 = 0.005423", "value": "1.059 ± 0.015", "unit": "mPa·s"}, {"measurement": "viscosity", "setting": "298.15 K, x1 = 0.0004009, x3 = 0.00715", "value": "1.112 ± 0.015", "unit": "mPa·s"}, {"measurement": "viscosity", "setting": "298.15 K, x1 = 0.0005548, x3 = 0.001843", "value": "0.965 ± 0.014", "unit": "mPa·s"}, {"measurement": "viscosity", "setting": "298.15 K, x1 = 0.000588, x3 = 0.003652", "value": "1.016 ± 0.015", "unit": "mPa·s"}, {"measurement": "viscosity", "setting": "298.15 K, x1 = 0.0005968, x3 = 0.005422", "value": "1.064 ± 0.015", "unit": "mPa·s"}, {"measurement": "viscosity", "setting": "298.15 K, x1 = 0.0005973, x3 = 0.007149", "value": "1.119 ± 0.015", "unit": "mPa·s"}, {"measurement": "viscosity", "setting": "298.15 K, x1 = 0.000739, x3 = 0.001842", "value": "0.97 ± 0.014", "unit": "mPa·s"}, {"measurement": "viscosity", "setting": "298.15 K, x1 = 0.0007594, x3 = 0.003651", "value": "1.02 ± 0.015", "unit": "mPa·s"}, {"measurement": "viscosity", "setting": "298.15 K, x1 = 0.0007857, x3 = 0.007147", "value": "1.124 ± 0.015", "unit": "mPa·s"}, {"measurement": "viscosity", "setting": "298.15 K, x1 = 0.0007911, x3 = 0.005421", "value": "1.069 ± 0.015", "unit": "mPa·s"}, {"measurement": "viscosity", "setting": "298.15 K, x1 = 0.0009323, x3 = 0.001842", "value": "0.974 ± 0.014", "unit": "mPa·s"}, {"measurement": "viscosity", "setting": "298.15 K, x1 = 0.0009495, x3 = 0.00365", "value": "1.025 ± 0.015", "unit": "mPa·s"}, {"measurement": "viscosity", "setting": "298.15 K, x1 = 0.0009642, x3 = 0.00542", "value": "1.074 ± 0.015", "unit": "mPa·s"}, {"measurement": "viscosity", "setting": "298.15 K, x1 = 0.0009957, x3 = 0.007146", "value": "1.13 ± 0.015", "unit": "mPa·s"}, {"measurement": "viscosity", "setting": "298.15 K, x1 = 0.001116, x3 = 0.001842", "value": "0.979 ± 0.014", "unit": "mPa·s"}, {"measurement": "viscosity", "setting": "298.15 K, x1 = 0.001147, x3 = 0.005419", "value": "1.079 ± 0.015", "unit": "mPa·s"}, {"measurement": "viscosity", "setting": "298.15 K, x1 = 0.001153, x3 = 0.003649", "value": "1.029 ± 0.015", "unit": "mPa·s"}, {"measurement": "viscosity", "setting": "298.15 K, x1 = 0.001184, x3 = 0.007144", "value": "1.134 ± 0.015", "unit": "mPa·s"}, {"measurement": "viscosity", "setting": "298.15 K, x1 = 0.0013, x3 = 0.001841", "value": "0.982 ± 0.014", "unit": "mPa·s"}, {"measurement": "viscosity", "setting": "298.15 K, x1 = 0.001326, x3 = 0.003649", "value": "1.034 ± 0.015", "unit": "mPa·s"}, {"measurement": "viscosity", "setting": "298.15 K, x1 = 0.001352, x3 = 0.005418", "value": "1.083 ± 0.015", "unit": "mPa·s"}, {"measurement": "viscosity", "setting": "298.15 K, x1 = 0.001359, x3 = 0.007143", "value": "1.138 ± 0.015", "unit": "mPa·s"}, {"measurement": "viscosity", "setting": "298.15 K, x1 = 0.001475, x3 = 0.001841", "value": "0.986 ± 0.015", "unit": "mPa·s"}, {"measurement": "viscosity", "setting": "298.15 K, x1 = 0.001497, x3 = 0.003648", "value": "1.039 ± 0.015", "unit": "mPa·s"}, {"measurement": "viscosity", "setting": "298.15 K, x1 = 0.001552, x3 = 0.005417", "value": "1.089 ± 0.015", "unit": "mPa·s"}, {"measurement": "viscosity", "setting": "298.15 K, x1 = 0.001588, x3 = 0.007142", "value": "1.143 ± 0.015", "unit": "mPa·s"}, {"measurement": "viscosity", "setting": "298.15 K, x1 = 0.001657, x3 = 0.001841", "value": "0.99 ± 0.015", "unit": "mPa·s"}, {"measurement": "viscosity", "setting": "298.15 K, x1 = 0.001681, x3 = 0.003648", "value": "1.042 ± 0.015", "unit": "mPa·s"}, {"measurement": "viscosity", "setting": "298.15 K, x1 = 0.001708, x3 = 0.005416", "value": "1.09 ± 0.015", "unit": "mPa·s"}, {"measurement": "viscosity", "setting": "298.15 K, x1 = 0.001731, x3 = 0.00714", "value": "1.148 ± 0.015", "unit": "mPa·s"}]}
{"compound": "CCCCn1cc[n+](C)c1C.O=S(=O)([N-]S(=O)(=O)C(F)(F)F)C(F)(F)F", "note": "+ O=C1CCCO1", "values": [{"measurement": "electrical conductivity", "setting": "293.15 K, x2 = 0.1014", "value": "0.207 ± 0.006", "unit": "S/m"}, {"measurement": "electrical conductivity", "setting": "293.15 K, x2 = 0.3", "value": "0.302 ± 0.009", "unit": "S/m"}, {"measurement": "electrical conductivity", "setting": "293.15 K, x2 = 0.8001", "value": "1.12 ± 0.034", "unit": "S/m"}, {"measurement": "electrical conductivity", "setting": "298.15 K, x2 = 0.8996", "value": "1.3 ± 0.039", "unit": "S/m"}, {"measurement": "electrical conductivity", "setting": "303.15 K, x2 = 0.3", "value": "0.451 ± 0.014", "unit": "S/m"}, {"measurement": "electrical conductivity", "setting": "303.15 K, x2 = 0.9468", "value": "1.01 ± 0.033", "unit": "S/m"}, {"measurement": "electrical conductivity", "setting": "308.15 K, x2 = 0.3", "value": "0.538 ± 0.016", "unit": "S/m"}, {"measurement": "electrical conductivity", "setting": "308.15 K, x2 = 0.7012", "value": "1.28 ± 0.039", "unit": "S/m"}, {"measurement": "electrical conductivity", "setting": "313.15 K, x2 = 0.1014", "value": "0.479 ± 0.014", "unit": "S/m"}, {"measurement": "electrical conductivity", "setting": "313.15 K, x2 = 0.7012", "value": "1.43 ± 0.043", "unit": "S/m"}, {"measurement": "electrical conductivity", "setting": "318.15 K, x2 = 0", "value": "0.51 ± 0.015", "unit": "S/m"}, {"measurement": "electrical conductivity", "setting": "318.15 K, x2 = 0.7012", "value": "1.58 ± 0.047", "unit": "S/m"}, {"measurement": "electrical conductivity", "setting": "323.15 K, x2 = 0", "value": "0.599 ± 0.018", "unit": "S/m"}]}
